From patent publication US11752126B2, “Stable cannabinoid compositions” (Sino-German M&A Service GmbH, priority 2017, dated 2023)

Assay: THC content over time in different stabilizing systems (FIG. 1)
Assay type: physicochemical
Excerpt: In the lower data set, the initial concentration of THC is reduced to 91% at day 93 with respect to the initial concentration of THC at day 0.

In the case of `CCCCCc1cc(O)c2c(c1)OC(C)(C)[C@@H]1CCC(C)=C[C@@H]21` [THC, tetrahydrocannabinol], the “evolution of the relative concentration of tetrahydrocannabinol (THC)” value (system including 1 weight percent tocopherol, over time) is reported as “nearly flat over time” and the “relative concentration of tetrahydrocannabinol (THC)” value (system including no tocopherol, day 93, with respect to the initial concentration of THC at day 0) is reported as 91%.
